The subject of one assay is OVCAR-3 tumors. The assay can be described thus: OVCAR-3 Tumor Xenograft Efficacy Study (IP). Conditions: 100 mg/kg IP once daily for 18 consecutive days.
Assay [1] deals with five KIF18A inhibitor-sensitive cancer cell lines. The assay can be described thus: 6-day cell growth assay with re-plating in drug-free media. It is filed as cell-based, human. As for the experimental part: To better understand the durability of response after KIF18A inhibitor treatment, all five KIF18A inhibitor-sensitive cancer cell lines were treated with DMSO or Compound C11 in a 6-day cell growth assay, where the surviving cells were washed, collected, counted, and re-plated in drug-free growth media and cultured for additional 7 to 9 days. MCF-7 cells treated with a CDK 4/6 inhibitor was included as a cytostatic comparator.

For a further assay, the system named is MDA-MB-157 TNBC cells. The assay can be described thus: Imaging-based Centrosome Count Assay (CCA). It is filed as cell-based. As to conditions: Homo sapiens, 24 hours of treatment. As for the experimental part: To analyze the effects of a KIF18A inhibitor on the mitotic phenotype of cancer cells, an imaging-based Centrosome Count Assay (CCA) carried out using a KIF18A inhibitor was carried out. In preparation for plating, MDA-MB-157 TNBC cells were resuspended seven times through a 10 mL syringe with 18-G needle to create a single-cell suspension. Cells were seeded at a density of 30 000 cells per well using the BRAVO Automated Liquid Handling Platform (Agilent Technologies, Santa Clara, Calif.) into Corning 96-well Flat Clear Bottom Black Polystyrene plate (Corning, N.Y.) in 100 μL of complete media and grown for 24 hours. […] Imaging data was acquired on Cellomics ArrayScan VTI HCS Reader (SN03090745F, ThermoFisher Scientific) using the SpotDetector.V4 Assay protocol (Ver 6.6.0 (Build 8153) with a 20×objective, experiment #1 collected 100-fields per well; experiment #2 collected 67-fields per well). […] The percentage of mitotic objects with >2 pericentrin spots (proxy for centrosome number) was determined for each well. […] This represents the total valid p-Histone H3 positive mitotic object count based on the set fluorescence intensity threshold using alexa-647 (channel 3). • (3) % Selected Object pHH3. […]

SMILES strings stand for the structures. pEC50: −log10 of the molar value. Like-named read-outs stand apart in the source and are kept apart here.

Protocol for OVCAR-3 tumors: Mice were injected with human OVCAR-3 cells (5.0×10^6) subcutaneously in the right flank. Animals with established tumors were randomized into four groups (n=10 per group) with average tumor volume of 130 mm^3. […] Treatment started on day 24 post-tumor implantation and treatment terminal on day 42. Tumor volumes and body weights were recorded twice per week using a digital caliper and analytical lab scale, respectively. […] The percentage of tumor growth inhibition (% TGI) was calculated as % TGI relative to vehicle control: % TGI=100−[(Treated−Initial Volume)/(Control−Initial Volume)×100]. The percentage of tumor regression (% TR) was calculated as % TR compared final tumor volume to the initial tumor volume: % TR=100−[(Final Volume)/(Initial Volume)×100]. Data was graphed using GraphPad Prism 7.05. Statistical analysis was performed on treatment groups for tumor growth and blood counts using repeated measures ANOVA and one-way ANOVA, respectively, followed by Dunnett's multiple comparisons test.

Regarding `CC(C)(C)NS(=O)(=O)c1cccc(NC(=O)c2ccc(S(=O)(=O)NC(C)(C)C)cc2N2CCC3(CC2)CC3)c1` [Compound C9, 4-(N-(tert-butyl)sulfamoyl)-N-(3-(N-(tert-butyl)sulfamoyl)phenyl)-2-(6-azaspiro[2.5]octan-6-yl)benzamide], the tumor regression in the assay on OVCAR-3 tumors is given as 73%. For `CC(C)(CO)Nc1ccc(C(=O)Nc2cccc(S(=O)(=O)C3CCCC3)c2)c(N2CCC3(CC2)CC3)n1` [Compound C11, N-(3-(cyclopentylsulfonyl)phenyl)-6-((1-hydroxy-2-methylpropan-2-yl)amino)-2-(6-azaspiro[2.5]octan-6-yl)nicotinamide], in assay [1] (6-day treatment), the “cell growth and colony formation” value was “significant decrease in cell growth and colony formation”. Besides, the “cell growth potential after drug withdrawal relative to DMSO control” value in assay [1] (re-plated in drug-free media, additional 7 to 9 days) is given as “marked reduction cell growth potential”. A word on the pEC50: it is the negative decadic logarithm of the EC50, by convention in mol/L. On to `Cc1cc(NC(=O)c2ccc(NS(=O)(=O)CCO)cc2N2CCC3(CC2)CC3)nc(N2CCC(F)(F)CC2)n1` [Compound C14, N-(2-(4,4-Difluoropiperidin-1-yl)-6-methylpyrimidin-4-yl)-4-((2-hydroxyethyl)sulfonamido)-2-(6-azaspiro[2.5]octan-6-yl)benzamide], for which the pEC50 in the assay with MDA-MB-157 TNBC cells (read-out: EC50, increase in p-Histone H3 positive cells) is 7.10; in the assay on MDA-MB-157 TNBC cells (read-out: EC50, pericentrin spotting (>2 spots per mitotic object)) it was 7.28.

Values taken from US20230151432A1, “KIF18A INHIBITORS FOR TREATMENT OF NEOPLASTIC DISEASES” (AMGEN INC., priority 2020, published 2023).
